We go through six compounds from US20240116962A1, “PYRIDINE-2-AMINE DERIVATIVE AND PHARMACEUTICAL COMPOSITION AND USE THEREOF” (TSINGHUA UNIVERSITY, priority 2020, published 2024).

One experiment addresses T1, hTLR7 (Homo sapiens, UniProt Q9NYK1).
T1 construct: host or cells: HEK-Blue hTLR7 (HEK293-derived reporter cells with SEAP read-out)
T1 sequence (Q9NYK1 27-1049): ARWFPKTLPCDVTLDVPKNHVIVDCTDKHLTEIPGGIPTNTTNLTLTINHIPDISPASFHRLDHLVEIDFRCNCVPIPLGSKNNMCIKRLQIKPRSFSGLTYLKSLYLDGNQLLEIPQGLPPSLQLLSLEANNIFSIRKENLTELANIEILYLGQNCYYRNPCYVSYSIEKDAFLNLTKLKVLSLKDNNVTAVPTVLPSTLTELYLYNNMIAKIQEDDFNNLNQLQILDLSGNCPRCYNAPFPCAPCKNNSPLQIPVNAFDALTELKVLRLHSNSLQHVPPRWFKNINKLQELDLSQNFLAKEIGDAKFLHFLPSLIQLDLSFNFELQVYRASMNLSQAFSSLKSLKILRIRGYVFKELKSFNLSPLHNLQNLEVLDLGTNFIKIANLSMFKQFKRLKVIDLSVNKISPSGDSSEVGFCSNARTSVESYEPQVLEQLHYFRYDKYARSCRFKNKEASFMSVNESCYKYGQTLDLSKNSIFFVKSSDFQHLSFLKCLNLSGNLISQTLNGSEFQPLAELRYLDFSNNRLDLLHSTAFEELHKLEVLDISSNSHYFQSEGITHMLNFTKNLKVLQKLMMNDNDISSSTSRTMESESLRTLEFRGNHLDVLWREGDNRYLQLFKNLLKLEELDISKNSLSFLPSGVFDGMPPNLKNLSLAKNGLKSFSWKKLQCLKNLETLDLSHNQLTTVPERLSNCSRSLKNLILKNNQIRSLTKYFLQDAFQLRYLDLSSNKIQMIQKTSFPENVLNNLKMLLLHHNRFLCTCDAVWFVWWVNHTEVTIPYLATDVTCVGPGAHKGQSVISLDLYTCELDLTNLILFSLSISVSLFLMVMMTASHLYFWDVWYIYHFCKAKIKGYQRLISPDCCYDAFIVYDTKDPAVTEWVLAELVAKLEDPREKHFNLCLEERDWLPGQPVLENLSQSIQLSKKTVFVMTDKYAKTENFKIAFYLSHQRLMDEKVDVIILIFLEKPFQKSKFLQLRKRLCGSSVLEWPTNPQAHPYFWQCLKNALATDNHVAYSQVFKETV
The experiment in a line: EC50 assay for small molecule agonists, HEK-Blue hTLR7 cells, SEAP readout. Particulars: agonist activity, nd = EC50 larger than 25 μM. In kind it is cell-based. On the procedure: (§1) Reagents used for cell culture and detection for HEK-Blue™ hTLR7, HEK-Blue™ hTLR8 and control HEK-Blue Nu112k were as follows: DMEM (4.5 g/L glucose), bovine serum FBS, streptomycin ([…]), penicillin (50 U/mL), Blasticidin (10 mg/mL), Zeocin™ (10 mg/mL), Normocin (50 mg/mL), and HEK-Blue™ Detection. Basal medium was as follows: DMEM +10% FBS+streptomycin+penicillin+Normocin ([…]); selective medium for resistance genes was as follows: DMEM+10% FBS+streptomycin+penicillin+Normocin (1001 μg/mL)+Blasticidin (1001 μg/mL)+Zeocin™ (1001 μg/mL).
(§2) Cell preparation: HEK-Blue™ hTLR7 and HEK-Blue™ hTLR8 cell lines were purchased from Invivogen. The cells frozen in liquid nitrogen were taken, quickly placed in a water bath at 37° C., shaken occasionally, and completely melted within 1 min. The cells were transferred to 15 mL of pre-heated basal medium and resuspended; centrifuged at 1,000 r/min for 5 min, supernatant discarded; resuspended with 1 mL of basal medium, transferred to a T25 culture flask, supplemented to 5 mL with the medium, and incubated in an incubator at 37° C.; after stable passage twice, and subjected to selective antibiotic screening: HEK-Blue™ hTLR7 or HEK-Blue™ hTLR8: 100 μg/mL Zeocin+Blasticidin (30 μg/mL), HEK-Blue Nu112-k: 100 μg/mL Zeocin. The fluid was changed 3 times a week. When the number of cells reached 70%-80%, PBS was added, and the cells were exfoliated by gently pipetting.
(§3) Activity assay steps: (1) adding a test sample to a 96-well plate at 20 μL/well (triplicate wells were set); (2) adding 20 μL of positive control (e.g., R848), and adding 20 μL of negative control (e.g., ddH2O); (3) removing a T75 culture flask from the incubator, discarding the medium, adding 5-10 mL of pre-heated PBS, and gently pipetting the cells; adding 2-5 mL of PBS to the culture flask, incubating the culture flask in the incubator for 1-2 min, and then gently pipetting the cells to make them exfoliated; (4) mixing the mixture well, and counting the cells, without centrifugation; resuspending the cells with HEK-Blue™ assay solution and adjusting the cell number, taking care not to incubate for a long time to avoid too deep background or false positive. HEK-Blue hTLR cell number was about 2.2×10^5/mL, 180 μL/well (about 40000 cells), and HEK-Blue Nu112-k cell number was about 2.8×10^5/mL, 180 μL/well (about 50000 cells). (5) incubating the cells in the incubator at 37° C. for 6-16 h, and detecting at 620-655 nm for SEAP readings.
(§4) Effect %=(mean OD of the administration group−mean OD of the H2O group at each concentration)/(mean ODmax of the positive drug group−mean OD of the H2O group)×100. EC50 was calculated by fitting Lg [concentration]-effect curves using GraphPad Prism5 software.
(§5) Experimental results: the concentration for 50% of maximal effect (EC50) refers to a corresponding concentration of small molecules that can cause 50% of the maximal agonistic effect. […] EC50 represents a potency for agonizing the TLR8 receptor, with smaller values indicating better efficacy. […] In the following table, the unit of the agonist activity is nanomole, unless otherwise specified.

Another experiment addresses T2, hTLR8 (Homo sapiens, UniProt Q9NR97).
T2 construct: host or cells: HEK-Blue hTLR8 (HEK293-derived reporter cells with SEAP read-out)
T2 sequence (Q9NR97 27-1041): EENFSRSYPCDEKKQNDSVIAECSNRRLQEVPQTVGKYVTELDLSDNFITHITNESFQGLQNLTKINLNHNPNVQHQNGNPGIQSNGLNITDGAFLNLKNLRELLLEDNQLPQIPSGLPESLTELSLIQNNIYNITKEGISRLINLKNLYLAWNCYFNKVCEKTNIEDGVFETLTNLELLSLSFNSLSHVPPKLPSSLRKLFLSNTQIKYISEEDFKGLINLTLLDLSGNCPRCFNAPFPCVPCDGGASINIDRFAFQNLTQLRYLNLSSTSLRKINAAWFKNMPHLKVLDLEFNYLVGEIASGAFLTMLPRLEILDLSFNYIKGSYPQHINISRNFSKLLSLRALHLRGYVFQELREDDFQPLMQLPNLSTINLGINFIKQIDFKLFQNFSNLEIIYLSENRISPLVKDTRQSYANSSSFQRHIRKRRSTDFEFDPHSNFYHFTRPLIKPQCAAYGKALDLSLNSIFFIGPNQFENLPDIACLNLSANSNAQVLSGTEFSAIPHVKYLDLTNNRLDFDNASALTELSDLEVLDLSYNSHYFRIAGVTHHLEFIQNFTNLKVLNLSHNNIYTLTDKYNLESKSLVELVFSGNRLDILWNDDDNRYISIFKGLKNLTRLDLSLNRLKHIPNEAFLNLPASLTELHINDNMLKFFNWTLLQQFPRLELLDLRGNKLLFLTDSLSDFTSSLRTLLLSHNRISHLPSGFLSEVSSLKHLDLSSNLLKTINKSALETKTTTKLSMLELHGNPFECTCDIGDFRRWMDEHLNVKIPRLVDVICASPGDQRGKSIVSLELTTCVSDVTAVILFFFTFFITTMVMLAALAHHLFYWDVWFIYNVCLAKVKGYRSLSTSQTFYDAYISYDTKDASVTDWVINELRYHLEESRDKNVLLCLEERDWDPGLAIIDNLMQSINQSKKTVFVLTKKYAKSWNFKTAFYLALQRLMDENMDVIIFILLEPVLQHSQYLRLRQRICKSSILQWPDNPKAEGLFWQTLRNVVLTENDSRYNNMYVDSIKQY
The experiment is described as follows: EC50 assay for small molecule agonists, HEK-Blue hTLR8 cells, SEAP readout. It counts as cell-based. On the procedure: as §1, §2, §3, §4, §5

Where [1] appears, read: agonist activity, read-out: hTLR8(EC50).

Like-named read-outs stand apart in the source and are kept apart here.

Regarding `CCCCCc1cc(Cc2ccc(CN3CC4(COC4)C3)cc2)c(C)nc1N` [Compound N22], the EC50 is greater than 25000 nM at hTLR7 and 81 nM on hTLR8 (setting [1]).
The corresponding values for `CCCCCc1cc(Cc2cccc(CN(C)C)c2)c(C)nc1N` [Compound N32] are greater than 25000 nM and 290 nM.
The like results for `CCCCCc1cc(Cc2ccc(CN3CCN(C)CC3)cc2O)c(C)nc1N` [Compound N49] were, in that order, greater than 25000 nM and 627 nM.
The corresponding values for `CCCCCc1cc(Cc2ccc(CN3CCN(C)CC3)cc2)c(C)nc1N` [Compound N11] are greater than 25000 nM and 151 nM.
For the compound `CCCCCc1cc(Cc2ccc(CN3CCNCC3)cc2)c(C)nc1N` [Compound N10], the EC50 on hTLR7 is greater than 25000 nM; at hTLR8 (setting [1]) it was 134 nM.
Turning to `CCCCNc1cc(Cc2ccc(CN(C)C)cc2)c(C)nc1N` [Compound N55], the EC50 at hTLR7 is greater than 25000 nM; at hTLR8 (read-out: concentration for 50% of maximal effect (EC50) hTLR8) it was 15 nM.
